Some results are limits rather than exact numbers.

In one test the test system is H460 cells. Nature of the test: alamarBlue H460 cell assay (antiproliferative/cytotoxicity). The format is cell-based. Conditions: NCI-H460; H460 human lung carcinoma cells. In outline:
(§1)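 Read-out: alamarBlue reduction by metabolically active cells, fluorescence ex 530-560 nm/em 590 nm, measured 8 h after dye addition at 37° C. Cells had been exposed to compound for 5-6 days over a 10-point 1:3 series starting at 10 μM final. EC50 derived after medium-blank subtraction.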

For a further test, the system named is MCF7 cells. Nature of the test: alamarBlue MCF7 cell assay (antiproliferative/cytotoxicity). Conditions: MCF7 human breast cancer cell line. The format is cell-based. Put shortly: as §1
The subject of the next test is U87 cells. The experiment in a line: alamarBlue U87 cell assay (antiproliferative/cytotoxicity). The format is cell-based. Conditions: U-87MG human glioblastoma cells. Put shortly:
as §1

In another test the test system is BT474 cells. Nature of the test: alamarBlue BT474 cell assay (antiproliferative/cytotoxicity). The format is cell-based. Particulars: BT-474 human breast cancer cell line, 5-6 days incubation. Put shortly: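 Cells treated 5–6 days at 37 °C with compound, 10 μM top final concentration, 1:3 steps over 10 dilutions, in duplicate. alamarBlue then added for 8 h; fluorescence read at ex 530–560/em 590 nm, medium blank subtracted, EC50 fitted.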

Another test concerns MB453 cells. The experiment in a line: alamarBlue MB453 cell assay (antiproliferative/cytotoxicity). Type of test: cell-based. Particulars: Homo sapiens; MDA MB 453 breast cancer cell line. In outline: as §1
A further test has as its target T1, PI3Kalpha (Homo sapiens, UniProt P42336).
T1 construct: His (N); made in house; host or cells: SF9 insect cells (baculovirus co-infection)
Nature of the test: Inhibition of PI3Kalpha-induced PIP-2 phosphorylation (filter-binding assay, 33P-ATP). Type of test: biochemical. Conditions: PI3 Kinase alpha (p85alpha/His-p110alpha), 1 μM ATP; read-out: IC50 PI3Kα.

T1 sequence (P27986 whole entry): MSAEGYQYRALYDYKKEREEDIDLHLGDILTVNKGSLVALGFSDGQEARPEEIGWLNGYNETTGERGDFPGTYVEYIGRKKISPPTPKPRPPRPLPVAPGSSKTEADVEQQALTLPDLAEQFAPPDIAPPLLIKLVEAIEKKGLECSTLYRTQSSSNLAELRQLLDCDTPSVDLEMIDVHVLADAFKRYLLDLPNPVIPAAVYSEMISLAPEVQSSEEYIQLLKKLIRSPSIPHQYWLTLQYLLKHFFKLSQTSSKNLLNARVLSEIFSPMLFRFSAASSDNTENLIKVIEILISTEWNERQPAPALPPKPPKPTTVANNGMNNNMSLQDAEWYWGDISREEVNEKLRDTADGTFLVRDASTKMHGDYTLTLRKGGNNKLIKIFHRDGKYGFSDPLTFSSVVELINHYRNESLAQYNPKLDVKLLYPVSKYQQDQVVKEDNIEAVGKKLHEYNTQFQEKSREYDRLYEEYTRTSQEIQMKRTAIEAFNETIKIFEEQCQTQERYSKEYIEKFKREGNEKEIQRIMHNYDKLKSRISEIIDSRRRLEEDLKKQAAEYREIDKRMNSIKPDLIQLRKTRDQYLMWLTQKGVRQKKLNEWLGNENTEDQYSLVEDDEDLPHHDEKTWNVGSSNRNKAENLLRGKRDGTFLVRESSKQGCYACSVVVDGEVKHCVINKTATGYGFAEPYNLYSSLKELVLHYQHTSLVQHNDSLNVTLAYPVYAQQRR
T1 sequence (P42336 whole entry): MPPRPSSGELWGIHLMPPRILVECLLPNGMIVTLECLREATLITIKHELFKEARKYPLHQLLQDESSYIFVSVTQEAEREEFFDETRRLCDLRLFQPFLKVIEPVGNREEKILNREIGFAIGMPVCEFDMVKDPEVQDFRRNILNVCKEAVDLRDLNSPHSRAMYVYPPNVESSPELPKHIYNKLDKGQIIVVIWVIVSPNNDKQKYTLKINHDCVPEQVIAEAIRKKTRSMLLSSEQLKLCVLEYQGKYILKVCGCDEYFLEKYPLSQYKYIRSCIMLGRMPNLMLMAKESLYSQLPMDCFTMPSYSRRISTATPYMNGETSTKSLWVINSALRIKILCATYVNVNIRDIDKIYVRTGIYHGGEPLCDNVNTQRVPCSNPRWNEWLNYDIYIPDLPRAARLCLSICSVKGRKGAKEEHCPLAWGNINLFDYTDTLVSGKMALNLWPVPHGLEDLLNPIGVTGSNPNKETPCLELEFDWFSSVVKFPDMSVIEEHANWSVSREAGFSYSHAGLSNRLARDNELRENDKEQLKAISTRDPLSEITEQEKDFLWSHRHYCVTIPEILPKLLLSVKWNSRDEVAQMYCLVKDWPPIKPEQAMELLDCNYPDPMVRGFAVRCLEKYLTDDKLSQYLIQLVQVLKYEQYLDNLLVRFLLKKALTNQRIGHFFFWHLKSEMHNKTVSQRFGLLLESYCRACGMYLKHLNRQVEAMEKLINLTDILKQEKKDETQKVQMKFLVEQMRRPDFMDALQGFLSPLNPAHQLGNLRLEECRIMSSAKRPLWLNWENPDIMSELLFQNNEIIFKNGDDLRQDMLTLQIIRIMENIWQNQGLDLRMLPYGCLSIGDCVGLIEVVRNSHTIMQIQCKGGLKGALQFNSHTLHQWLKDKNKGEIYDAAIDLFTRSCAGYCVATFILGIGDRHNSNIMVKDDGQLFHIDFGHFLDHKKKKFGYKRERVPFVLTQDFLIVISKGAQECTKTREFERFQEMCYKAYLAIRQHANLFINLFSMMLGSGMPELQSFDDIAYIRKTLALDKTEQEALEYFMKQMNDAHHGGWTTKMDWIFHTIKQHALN

With `Cc1ncc(C#Cc2c(C)ncnc2-c2ccccc2)cc1NS(C)(=O)=O` [Example 42, N-[2-Methyl-5-(4-methyl-6-phenyl-pyrimidin-5-ylethynyl)-pyridin-3-yl]-methanesulfonamide], the EC50 in the test on H460 cells came to 2260 nM; in the test with MCF7 cells it was 239 nM; in the test with U87 cells, 1810 nM; with BT474 cells, 1130 nM; in the test on MB453 cells, 1330 nM. Further, on PI3Kalpha, the IC50 was 4 nM.
On to `CCc1ncnc(-c2cccc(C#N)c2)c1C#Cc1cnc(C)c(NS(C)(=O)=O)c1` [Example 55, N-{5-[4-(3-Cyano-phenyl)-6-ethyl-pyrimidin-5-ylethynyl]-2-methyl-pyridin-3-yl}-methanesulfonamide], for which the EC50 turned out to be 945 nM in the test with H460 cells; 126 nM in the test on MCF7 cells; 609 nM in the test with U87 cells; 302 nM in the test on BT474 cells; 317 nM in the test on MB453 cells. Further, the IC50 at PI3Kalpha is 3 nM.
With `CCc1ncnc(-c2ccccc2OC)c1C#Cc1cnc(C)c(NS(C)(=O)=O)c1` [Example 62, N-{5-[4-Ethyl-6-(2-methoxy-phenyl)-pyrimidin-5-ylethynyl]-2-methyl-pyridin-3-yl}-methanesulfonamide], the EC50 was 2760 nM with H460 cells; 1420 nM in the test on MCF7 cells; 25000 nM in the test with U87 cells; not below 10000 nM with BT474 cells; 2900 nM with MB453 cells. Moreover, the IC50 on PI3Kalpha came to 12 nM.
Regarding `CCc1ncnc(-c2cccc(CN(C)C)c2)c1C#Cc1cnc(C)c(NS(C)(=O)=O)c1` [Example 2, N-{5-[4-(3-Dimethylaminomethyl-phenyl)-6-ethyl-pyrimidin-5-ylethynyl]-2-methyl-pyridin-3-yl}-methanesulfonamide], the EC50 in the test on H460 cells was 2820 nM; with MCF7 cells it was 439 nM; with U87 cells, 1230 nM; in the test with BT474 cells, 588 nM; in the test with MB453 cells it was 394 nM. In addition, the IC50 at PI3Kalpha was found to be 7 nM.
`CCc1ncnc(-c2cccc(C(F)(F)F)c2OC)c1C#Cc1cnc(C)c(NS(C)(=O)=O)c1` [Example 7, N-{5-[4-Ethyl-6-(2-methoxy-3-trifluoromethyl-phenyl)-pyrimidin-5-ylethynyl]-2-methyl-pyridin-3-yl}-methanesulfonamide]: the EC50 was found to be 358 nM in the test on H460 cells; 223 nM in the test with MCF7 cells; 475 nM in the test on U87 cells; 543 nM with BT474 cells; 381 nM in the test with MB453 cells. Moreover, on PI3Kalpha, the IC50 was 2 nM.
`CCc1ncnc(-c2ccc(CNC(=O)OC(C)(C)C)nc2)c1C#Cc1cnc(C)c(NS(=O)(=O)c2ccccc2)c1` [Example 50, {5-[5-(5-Benzene-sulfonylamino-6-methyl-pyridin-3-ylethynyl)-6-ethyl-pyrimidin-4-yl]-pyridin-2-ylmethyl}-carbamic acid tert-butyl ester]: the EC50 turned out to be 104 nM in the test with H460 cells; 27 nM with MCF7 cells; 104 nM in the test on U87 cells; 102 nM with BT474 cells; 115 nM with MB453 cells. Also, the IC50 on PI3Kalpha was 0.43 nM.
On to `Cc1ccc(-c2ncnc(C)c2C#Cc2cnc(C)c(NS(C)(=O)=O)c2)cn1` [Example 40, N-{2-Methyl-5-[4-methyl-6-(6-methyl-pyridin-3-yl)-pyrimidin-5-ylethynyl]-pyridin-3-yl}-methanesulfonamide], for which the EC50 in the test on H460 cells is 1960 nM; in the test with MCF7 cells it was 188 nM; in the test with U87 cells it was 1170 nM; in the test with BT474 cells it was 597 nM; in the test with MB453 cells, 411 nM. In addition, on PI3Kalpha, the IC50 worked out at 3 nM.
Regarding `CCc1ncnc(-c2ccc(CN)cc2)c1C#Cc1cnc(C)c(NS(C)(=O)=O)c1` [Example 78, N-{5-[4-(4-Aminomethyl-phenyl)-6-ethyl-pyrimidin-5-ylethynyl]-2-methyl-pyridin-3-yl}-methanesulfonamide], the EC50 turned out to be 2400 nM with H460 cells; 549 nM in the test on MCF7 cells; 892 nM in the test on U87 cells; 524 nM in the test with BT474 cells; 240 nM with MB453 cells. Besides, the IC50 at PI3Kalpha turned out to be 4 nM.
Turning to `CCc1ncnc(-c2ccnc(C)c2)c1C#Cc1cnc(C)c(NS(=O)(=O)c2ccc(C)cc2)c1` [Example 86, N-{5-[4-Ethyl-6-(2-methyl-pyridin-4-yl)-pyrimidin-5-ylethynyl]-2-methyl-pyridin-3-yl}-4-methyl-benzenesulfonamide], the EC50 in the test on H460 cells came to 208 nM; in the test with MCF7 cells, 56 nM; in the test with U87 cells it was 697 nM; in the test on BT474 cells it was 302 nM; with MB453 cells it was 492 nM. Besides, the IC50 at PI3Kalpha worked out at 1 nM.
`COc1ncc(C#Cc2c(C)ncnc2-c2ccc(C)nc2)cc1NS(=O)(=O)c1ccc(F)cc1F` [Example 47, 2,4-Difluoro-N-{2-methoxy-5-[4-methyl-6-(6-methyl-pyridin-3-yl)-pyrimidin-5-ylethynyl]-pyridin-3-yl}-benzenesulfonamide]: the EC50 in the test with H460 cells was 7 nM; with MCF7 cells, 18 nM; in the test on U87 cells, 70 nM; with BT474 cells, 43 nM; in the test with MB453 cells it was 29 nM. The IC50 at PI3Kalpha was 0.74 nM.
With `CCc1ncnc(-c2ccc(C)nc2)c1C#Cc1cnc(C)c(NS(=O)(=O)c2ccc(F)cc2F)c1` [Example 9, N-{5-[4-Ethyl-6-(6-methyl-pyridin-3-yl)-pyrimidin-5-ylethynyl]-2-methyl-pyridin-3-yl}-2,4-difluoro-benzenesulfonamide], the EC50 came to 49 nM in the test on H460 cells; 7 nM in the test with MCF7 cells; 248 nM in the test with U87 cells; 24 nM with BT474 cells; 36 nM in the test on MB453 cells. Also, on PI3Kalpha, the IC50 was 0.54 nM.
As to `CCc1ncnc(-c2ccnc(C)c2)c1C#Cc1cnc(C)c(NS(=O)(=O)c2ccccc2C)c1` [Example 89, N-{5-[4-Ethyl-6-(2-methyl-pyridin-4-yl)-pyrimidin-5-ylethynyl]-2-methyl-pyridin-3-yl}-2-methyl-benzenesulfonamide], the EC50 worked out at 319 nM in the test with H460 cells; 50 nM in the test on MCF7 cells; 827 nM in the test on U87 cells; 198 nM in the test on BT474 cells; 524 nM in the test on MB453 cells. Also, the IC50 on PI3Kalpha was 0.88 nM.
`CCc1ncnc(-c2cc(C)nc(C)c2)c1C#Cc1cnc(C)c(NS(C)(=O)=O)c1` [Example 6, N-{5-[4-(2,6-Dimethyl-pyridin-4-yl)-6-ethyl-pyrimidin-5-ylethynyl]-2-methyl-pyridin-3-yl}-methanesulfonamide]: the EC50 in the test with H460 cells is 169 nM; in the test with MCF7 cells it was 28 nM; in the test with U87 cells it was 243 nM; in the test with BT474 cells, 104 nM; with MB453 cells, 49 nM. At PI3Kalpha, the IC50 turned out to be 1 nM.
On to `CCc1ncnc(-c2cccc(C(F)(F)F)c2F)c1C#Cc1cnc(C)c(NS(C)(=O)=O)c1` [Example 70, N-{5-[4-Ethyl-6-(2-fluoro-3-trifluoromethyl-phenyl)-pyrimidin-5-ylethynyl]-2-methyl-pyridin-3-yl}-methanesulfonamide], for which the EC50 worked out at 1180 nM in the test on H460 cells; 374 nM in the test with MCF7 cells; 2350 nM with U87 cells; 1570 nM in the test with BT474 cells; 1270 nM in the test on MB453 cells. At PI3Kalpha, the IC50 turned out to be 20 nM.

The values are drawn from US8466162B2, “5-alkynyl-pyridines” (Boehringer Ingelheim International GmbH, priority 2011, dated 2013).
